# Earlier results in US20220168408A1, “MULTI-VALENT IMMUNOTHERAPY COMPOSITION AND METHODS OF USE FOR TREATING WT1-POSITIVE CANCERS” (SLSG LIMITED LLC, priority 2019, published 2022).
# Tested on: CD4+ and CD8+ responses
# Conditions: according to data from preclinical and phase 1 studies
sequence,measurement,value
SGQAYMFPNAPYLPSCLES (Mutated Homo sapiens) [WT1-122A1 long],stimulation of CD4+ and CD8+ responses,stimulate both CD4+ and CD8+ responses
